Assay results from patent publication US20250275968A1, “INHIBITORS OF TAU PROTEINS” (DEUTSCHES ZENTRUM FÜR NEURODEGENERATIVE ERKRANKUNGEN E.V., priority 2022, published 2025).
Counter-ions that a name gives are not always drawn.

Columns and labels:
2N4R tau = molecular target: T1, 2N4R tau (Homo sapiens, UniProt P10636); assay: In vitro seeded aggregation/fibrillization assay of 2N4R tau (ThT fluorescence); type: biochemical; details: for In vitro seeded aggregation/fibrillization of full-length tau (ThT fluorescence curves): 2N4R tau, various formulations
T1 construct: Full-length 2N4R tau was incubated with Osimertinib mesylate
T1 sequence (P10636 1-441 isoform P10636-8): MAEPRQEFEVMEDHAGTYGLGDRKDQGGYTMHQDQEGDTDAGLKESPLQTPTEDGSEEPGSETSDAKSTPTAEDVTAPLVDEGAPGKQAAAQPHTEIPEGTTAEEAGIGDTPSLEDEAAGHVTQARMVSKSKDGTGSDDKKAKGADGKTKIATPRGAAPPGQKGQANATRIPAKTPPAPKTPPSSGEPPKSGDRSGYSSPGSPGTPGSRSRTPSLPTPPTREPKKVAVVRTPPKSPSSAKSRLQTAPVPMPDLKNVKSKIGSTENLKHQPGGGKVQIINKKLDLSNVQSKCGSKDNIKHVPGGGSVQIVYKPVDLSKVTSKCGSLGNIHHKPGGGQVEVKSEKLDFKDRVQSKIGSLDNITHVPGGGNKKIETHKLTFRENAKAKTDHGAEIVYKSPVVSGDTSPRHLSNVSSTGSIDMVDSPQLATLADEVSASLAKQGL
Method: Aggregation of 2N4R Tau was performed using a previously published co-factor-free aggregation protocol, with a few modifications (Reference: Chakraborty, P. et al. Co-factor-free aggregation of tau into seeding-competent RNA-sequestering amyloid fibrils. Nat. Commun. 12, 4231 (2021)). Aggregation experiments used the Tau protein stock prepared in 25 mM HEPES pH 7.4, 1 mM TCEP. Stocks of compounds were prepared in aggregation buffer (25 mM HEPES, 10 mM KCl, 5 mM MgCl2, pH 7.2) or in DMSO (10 mM compound).
(§1) To prepare the Tau fibril seeds by de novo aggregation, 2N4R Tau at a monomer concentration of 25 μM was diluted in aggregation buffer. The working concentration of TCEP in the aggregation mixture was <25 μM after dilution of the stock. To this mixture, Thioflavin T (ThT) was added to a final concentration of 50 μM. A total volume of 100 μL of the Tau-ThT mixture was incubated in a well of a 96-well microplate (Greiner Bio-one), in the presence of two polytetrafluoroethylene beads. The microplate was subjected to a program implemented in a Tecan Spark plate reader that involved incubating at 37° C., with intervals of double orbital shaking and ThT fluorescence emission measurement. The excitation wavelength for ThT was set as 430 nm and the emission wavelength was 485 nm. Details of this plate reader program were published previously (Reference: Chakraborty, P. et al. Co-factor-free aggregation of tau into seeding-competent RNA-sequestering amyloid fibrils. Nat. Commun. 12, 4231 (2021)). […] The fibril-containing mixture collected from the microplate served as a seeding mixture for the subsequent aggregation assays.
Seeded aggregation assays were performed as described above but with 1.0% of the well volume occupied by the seeding mixture sonicated for 1 minute. The assays were performed in the presence and absence of compounds, and working concentrations ranged from 0-250 μM compound.
Analyses of the fluorescence curves were performed using Graphpad PRISM version 8. Fluorescence data were fit to a sigmoid function. The number of hours corresponding to half-maximal ThT Fluorescence™ as well as the span of fluorescence intensity (Span) were determined for each sigmoid curve. Statistically significant differences were determined by one-way ANOVA analysis with Dunnett's multiple comparison test or unpaired t-test.

15N-labeled 2N4R tau = molecular target: T2, 15N-labeled 2N4R tau (Homo sapiens, UniProt P10636); assay: SOFAST-HMQC NMR binding to monomeric tau; details: for binding to tau (NMR spectroscopy): 18 μM tau, 50 mM sodium phosphate pH 6.8, 16 h at 37° C., spectra at 5° C.
T2 construct: Full-length 2N4R tau was incubated with Osimertinib mesylate
T2 sequence (P10636 1-441 isoform P10636-8): as above
From the text: (A) Overlaid spectra of 2N4R tau with (black) and without (grey) a 100-fold molar excess of Osimertinib mesylate.
To obtain residue-specific information about the interaction between Tau and the compounds, ^1H-^15N correlation spectra of 2N4R Tau were monitored over the course of a titration with increasing amounts of compound. The ^1H-^15N SOFAST-HMQC (Reference: Schanda, P., Kupce, E. & Brutscher, B. SOFAST-HMQC experiments for recording two-dimensional heteronuclear correlation spectra of proteins within a few seconds. J. Biomol. NMR 33, 199-211 (2005)) spectra of [U-^15N]-Tau were acquired at 5° C. on a Bruker 800 MHz spectrometer equipped with a triple-resonance cryoprobe. Tau samples (18-25 μM) were prepared in NMR buffer containing 10% (v/v) D2O, and with compound concentrations that corresponded to Tau:compound mole ratios of 1:10 and 1:100. All NMR samples were incubated overnight (˜16 h) at 37° C. prior to spectral acquisition. Tau amide assignments were taken from a previous study (Reference: Mukrasch, M. et al. Structural polymorphism of 441-residue tau at single residue resolution. PLoS Biol. 7, e34 (2009)). However, because previous assignments were obtained using a Tau sample prepared in the presence of reducing agents, some amide resonances belonging to the repeat region of Tau (close to C291 and C322) were not unambiguously transferred to the SOFAST-HMQC spectra acquired under oxidizing conditions. Therefore, to obtain nearly complete backbone assignments in the repeat region, 3D HNCA, 3D HNCOCA, and 3D CBCACONH spectra were recorded for a [U-^13C,^15N]-4R Tau (K18 construct) sample prepared under the same buffer condition. The weighted, normalized chemical shift perturbations (CSP) were calculated as CSP=√[0.5 [(Δδ H)^2+(Δδ N)^2/25]. NMR signal intensity ratios, I/I0 (where I is the peak intensity of Tau amide backbone resonances in the presence of the compounds, and I0 is the peak intensity in the absence of the compounds), were calculated for each titration point.

2N4R tau aggregates = molecular target: T3, 2N4R tau aggregates (Homo sapiens, UniProt P10636); assay: Dissolution of preformed 2N4R tau fibrils (ThT fluorescence, TEM); type: biochemical; details: compounds added to tau fibrils after about 40 h; tau monomer:Compound 1:3 and 1:10
T3 construct: Full-length 2N4R tau was incubated with Osimertinib mesylate
T3 sequence (P10636 1-441 isoform P10636-8): as above
Method: (A) ThT fluorescence curves monitoring tau aggregation. tau fibrillization reached a saturation point within about 40 h, then compounds or buffer (Reference) were added to tau fibrils (tau monomer:Compound mole ratios 1:3 and 1:10). The experiment was performed in duplicate. […] Statistically significant differences were determined by one-way ANOVA with Dunnett's multiple comparison test. Significant differences corresponding to p≤0.0002(***) and p≤0.0001(****) are indicated. […] Scale bars are 500 nm. […] The dotted line corresponds to one standard deviation above the Reference value.
as §1
Fibril samples were negative stained using glow discharged 400 mesh carbon-coated copper grids. After staining using a 1% uranyl acetate solution, images were acquired on a Talos L120C transmission electron microscope (Thermo Fisher, Eindhoven, The Netherlands).

[1] = 2N4R tau^wt, mole ratios 1:3 and 1:10

| normalized Tm (midpoint of aggregation curve) (2N4R tau; [1]) | binding to tau (NMR spectroscopy) (15N-labeled 2N4R tau) | In vitro seeded aggregation/fibrillization of full-length tau (ThT fluorescence curves) (2N4R tau) | dissolution of 2N4R tau aggregates (reduction of ThT fluorescence intensity) (2N4R tau aggregates) | NMR signal intensity ratio I/I0 (15N-labeled 2N4R tau; 16 h incubation at 37° C.) | inhibitory activity towards tau aggregation (2N4R tau; 2.5% (v/v) DMSO) | SMILES | normalized Span of ThT fluorescence (2N4R tau; [1]) |
| --- | --- | --- | --- | --- | --- | --- | --- |
| do not show a clear dose-dependence | reveals binding |  |  |  |  | C=CC(=O)Nc1cc(Nc2nccc(-c3cn(C)c4ccccc34)n2)c(OC)cc1N(C)CCN(C)C [Osimertinib mesylate, N-[2-(2-Dimethylaminoethylmethylamino)-4-methoxy-5-[[4-(1-methylindol-3-yl)pyrimidin-2-yl]amino]phenyl]prop-2-enamide Mesylate Salt] | statistically lower normalized Span values |
|  | reveals binding | inhibited in a dose-dependent manner | partially dissolve | above 1 |  | C=CC(=O)Nc1cc(Nc2nccc(-c3c[nH]c4ccccc34)n2)c(OC)cc1N(C)CCN(C)C [Compound 3, N-[2-[[2-(dimethylamino)ethyl]methylamino]-5-[[4-(1H-indol-3-yl)-2-pyrimidinyl]amino]-4-methoxyphenyl]-2-Propenamide] |  |
|  |  | inhibited in a dose-dependent manner | partially dissolve |  | strong inhibitory activity | C=CC(=O)Nc1cc(Nc2nccc(-c3cn(C)c4ccccc34)n2)c(OC)cc1N(C)CCN(C)C [Osimertinib, N-[2-(2-Dimethylaminoethylmethylamino)-4-methoxy-5-[[4-(1-methylindol-3-yl)pyrimidin-2-yl]amino]phenyl]prop-2-enamide] |  |
